The record followed here is patent US5688773A, “Method of selectively destroying neoplastic cells” (priority 1994, dated 1997).

Series [1] deals with C6VIK cells. Put plainly: GCV killing in culture. Type of series: cell-based. Particulars: Rattus norvegicus, read-out: GCV concentration at which 50% of cells were killed. From the text:
(§1) Retroviral vectors can be used to transfer genes into the genome of dividing cells. In order to increase the efficiency of gene delivery and killing effect of ganciclovir, a new packaging line (C6VIK-WT) was developed by infecting C6VIK cells with an ecotropic wild-type retrovirus (MoMLV). See Mann et al., Cell 33:153-159 (1983); Price et al., Proc. Natl. Acad. Sci. USA 84:156-160 (1987); and Cepko, C., in Neuromethods, vol. 16, Molecular Neurobiological Techniques, Boulton et al., eds., The Humana Press, Clifton, N.J. (1989), pp. 177-219. Because tumor cells can migrate deep into brain parenchyme, they should be able to deliver the vector to tumor cells away from the tumor mass. In culture, 50% of C6VIK-WT cells were killed at 0.024 μM GCV, while it took 7.3 μM GCV to kill 50% of C6VIK cells. […] When C6VIK and C6VIK-WT were cultured with C6BAG cells (labelled with the lacZ gene and thus detectable by beta-galactosidase histochemistry), following GCV treatment substantially more C6BAG cells were killed when co-cultured with C6VIK-WT than with C6VIK cells. Presumably C6VIK-WT cells produce both wild-type retrovirus and retrovirus vectors containing the HSV-TK gene (neither of which are produced by C6VIK cells) and death of C6BAG cells might be mediated by retrovirus infection and/or self-generated GCV toxic products.

Another series deals with C6VIK-WT cells. Put plainly: GCV killing in culture. Particulars: Rattus norvegicus, read-out: GCV concentration at which 50% of cells were killed. Type of series: cell-based.
Excerpt: as §1

Another series relates to C6VIKWT cells. Particulars: colony survival; drug from day 7 for 9-12 days. As to the method:
To measure the ganciclovir sensitivity of colony formation, cells were plated in duplicate at a density of 500 cells per 25 cm^2 culture flask. Seven days later, ganciclovir was added at various concentrations (0, 0.1, 0.5, 1, 10, 50, 100, 300 μM) in quadruplicate and incubation was for 9-12 days, with medium changes every 3-5 days. Cells were then fixed with 100% methanol, and stained with Giemsa (Freshney, R. I., "Culture of Animal Cells," in: A Manual of Basic Techniques, 2d ed., New York, Alan R. Liss, Inc., pp. 170-171 (1987)), and colonies ≥2 mm in diameter were counted.

For series [2], the system named is C6VIK cells. The series is described as follows: Ganciclovir sensitivity in vivo, subrenal capsule tumors. Particulars: 20 mg/kg intraperitoneally daily; reassessed over a 16-day period; two animals. On the set-up: species or system rat. From the text:
In this study, rat C6 glioma cells were used as a model primary brain tumor type. C6 cells rapidly form a non-encapsulated, non-metastatic tumor after injection into the adult rat CNS. Further, derivative cell lines are available, which lack endogenous TK activity (C6-BUI) or bear the lacZ gene (C6-BAG), which are useful experimentally. A retroviral vector was generated in which the HSV-1-TK gene is regulated by the strong, constitutive retrovirus LTR promoter. C6-BUI cells were infected with this vector and selected for TK activity by growth in HAT medium. Parental and infected cells were tested for their dose-dependent sensitivity to ganciclovir in culture and in vivo following inoculation into the rat subrenal capsule.
Ganciclovir Sensitivity in vivo: Nine rats were implanted in the subrenal capsule with C6VIK cells. Four survived the procedure for further study. Tumors were measured 5 days after implantation. Two animals were treated with ganciclovir (20 mg/kg intraperitoneally daily) and two with saline daily. Tumor size was reassessed over a 16-day period. The two control tumors grew four- to twelve-fold.
This model overcomes the problem of not being able to directly observe the size of an intracerebral tumor implant and the concerns about delivery of ganciclovir through an intact blood-brain barrier.

Series [3] has as its system R450-2 (ΨCRE-derived clone, cytochrome P450 2B1). The series is described as follows: Growth in the presence of 500 μM cyclophosphamide. The following applies: 500 μM CPA, four days.
Series [4] has as its system mixed culture of 9L and 9L-ZP cells. The series is described as follows: Cytotoxicity toward mixed cultures. The format is cell-based, rat. The following applies: Rattus norvegicus, 120 h; equal numbers of 9L and 9L-ZP; 1 mM cyclophosphamide, 5 days; read-out: total cell population eradicated. On the procedure:
FIG. 28 is a bar graph depicting the cytotoxicity of oxazaphosphorines toward mixed cultures of 9L and 9L-ZP cells. Equal numbers of parental 9L cells were mixed with 9L-ZP cells (total initial cell number=1×10^5 /30 mm tissue culture dish). […] Cell numbers were determined 5 days after beginning drug treatment. Data (mean ±range of duplicates) are expressed as growth ratio (%) relative to drug-free controls.
To test for drug sensitivity, 1×10^5 cells were plated in 30-mm tissue culture plates (Falcon 3046) in duplicate. Drugs were added 18-24 hours after seeding. Cells were allowed to grow for times ranging up to 5 days after drug treatment, and the final cell number was then determined. Cells were rinsed with phosphate buffered saline or Hank's buffered saline, dispersed using trypsin-EDTA (GIBCO/BRL, Inc.), and then counted with a hemocytometer. Results are expressed as a growth ratio, i.e., the number of cells in plates containing drug as a percentage of the corresponding drug-free controls (mean±range of duplicate determinations).

The test system of the next series is C6 cells. Put plainly: Cell proliferation assay. The format is cell-based, rat. The following applies: 0.5 mM, four days. As to the method:
Cell proliferation assays: For cell proliferation assays, cells (2×10^5 per dish, unless otherwise noted) were plated onto 10 cm dishes. […] Incubations were continued for four days and cell numbers were assayed using a Coulter counter (Coulter Electronics Inc.), after harvesting in trypsinEDTA.

A further series has as its system C450-8 cells. Put plainly: cells. The following applies: Rattus norvegicus, read-out: CPA concentration reducing the number of cells by 50%. On the procedure:
Cyclophosphamide Dose-Response Assay: For dose-response curves, cells were plated at a density of 2×10^5 cells/100 mm dish (Corning) in quintuplicate. Two days later CPA was added to final concentrations of 0-100 μM. Five days after plating, the monolayers were rinsed twice with Hank's buffered saline (GIBCO) to remove dead cells. Monolayers were dispersed using trypsin-EDTA (GIBCO), and cell numbers were determined using a Coulter counter (Coulter Electronics Inc.).

The subject of series [5] is C6 cells exposed to CM from C6-P450. Put plainly: C6 colony formation after conditioned medium from drug-exposed cells. The following applies: for Colony numbers: colonies six days later.
Series [6] concerns cytochrome P450 2B1-positive cells (9L-ZP and L450-2). The series is described as follows: cells. Particulars: Rattus norvegicus, 120 h.

The structures appear in SMILES notation.

As to `Nc1nc(O)c2ncn(COC(CO)CO)c2n1` [ganciclovir], the IC50 in the series with C6VIK cells [1] was determined as 7.3 µM; with C6VIK-WT cells, 0.024 µM. For the same compound, in the series with C6VIKWT cells, the “fold more sensitive than parental line C6VIK at 50% surviving colonies” value came out at 300 fold. In addition, the “Tumor size after treatment” value in the series on C6VIK cells [2] is “smaller after the treatment than before”.

In the case of `O=P1(N(CCCl)CCCl)NCCCO1` (centres unmarked) [cyclophosphamide], the Cell destruction entry in [3] is listed as “destroyed completely”. In addition, the cytotoxicity at 1000 µM in series [4] was around 80%. For the same compound, in the series with C6 cells, the “Effect on cell proliferation” value is “had no effect”. Also, in the series on C6 cells (Table V panel A), the “Cell proliferation assay, number of cells” value is recorded as 21.10±1.37 ×10^6. Besides, the IC50 is 27 µM with C450-8 cells and around 70 µM in [6]. Also, the Colony numbers in series [5] (CM after 0.5 h of 0.5 mM CPA) came out at 263 ± 6; in series [5] (CM after 1.5 h of 0.5 mM CPA), 267 ± 9; in series [5] (CM after 3 h of 0.5 mM CPA), 144 ± 19; in [5] (CM after 6 h of 0.5 mM CPA) it was 94 ± 8; in series [5] (CM after 10 h of 0.5 mM CPA), 12 ± 0.3; in series [5] (CM after 24 h of 0.5 mM CPA), 0. Also, the Colony numbers in series [5] (CM after 32 h of 0.5 mM CPA), in series [5] (CM after 48 h of 0.5 mM CPA), in series [5] (CM after 72 h of 0.5 mM CPA) and in [5] (CM after 96 h of 0.5 mM CPA) was 0 each time. Besides, the “Inhibition of C6 cell colony formation” value in series [5] (CM after exposure to CPA for 24 hours) is on record as “Complete inhibition”. In series [5] (CM from treated C6-P450 cells, nine days), the “Toxicity of conditioned medium to C6 cell growth / colony formation” value is reported as “highly toxic”. For the same compound, in [5] (Table V panel C, CM from treated C6-P450 cultures), the “Secretion effect, C6 colony number” value worked out at 0.
